According to US11485742B2, “2-azaspiro[3.4]octane derivatives as M4 agonists” (NOVARTIS AG, priority 2019, dated 2022):

How the values were obtained:
Format in all cases: cell-based
[1] = biological target: T1, human cloned CHRM2 receptor (Homo sapiens, UniProt P08172); assay: CHRM2 Ca++ Flux Assay (M2_CHO cells, agonist mode); settings: M2 CHO cells; for EC50: agonist mode, geometric mean if tested more than once, read-out: M2 FDSS EC50; for M2 FDSS PA % / Emax: Percent Activity (PA) measured to EC100 of Carbachol; for Emax: read-out: M2 FDSS PA %
T1 construct: expressed in transfected cells; host or cells: CHO-K1 (M2_CHO)
T1 sequence (P08172 1-466): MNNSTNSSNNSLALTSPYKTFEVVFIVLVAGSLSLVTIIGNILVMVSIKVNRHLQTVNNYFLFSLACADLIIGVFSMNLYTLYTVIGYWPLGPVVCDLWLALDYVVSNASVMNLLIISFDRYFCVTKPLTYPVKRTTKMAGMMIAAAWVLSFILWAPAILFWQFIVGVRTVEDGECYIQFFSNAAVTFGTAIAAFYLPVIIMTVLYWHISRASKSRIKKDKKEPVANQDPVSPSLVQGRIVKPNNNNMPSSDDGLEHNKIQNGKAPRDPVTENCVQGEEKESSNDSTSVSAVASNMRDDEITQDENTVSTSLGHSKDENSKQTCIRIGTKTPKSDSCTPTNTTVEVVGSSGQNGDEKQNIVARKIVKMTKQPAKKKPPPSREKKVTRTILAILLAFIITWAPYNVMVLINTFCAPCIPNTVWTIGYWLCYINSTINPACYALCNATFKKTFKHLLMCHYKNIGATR
Method in brief: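 CHO-K1 cells stably expressing human CHRM2 were plated overnight at 12K cells/well and loaded with Ca++ dye for 1–2 h. They were then held 60 minutes in HBSS −Ca/−Mg, 20 mM HEPES, 2.5 mM probenecid, 20 μM ATP. Agonist-mode Ca++ flux was read over 3 minutes. Four-parameter fits of triplicates gave percent activity relative to carbachol EC100.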

[2] = biological target: T2, human cloned CHRM5 receptor (Homo sapiens, UniProt P08912); assay: CHRM5 Ca++ Flux Assay (M5_CHO cells, agonist mode); settings: for M5 FDSS PA % / Emax: Percent Activity (PA) measured to EC100 of Carbachol; for EC50: agonist mode, geometric mean if tested more than once, read-out: M5 FDSS EC50; for Emax: read-out: M5 FDSS PA %
T2 construct: expressed in transfected cells; host or cells: CHO (M5_CHO)
T2 sequence (P08912 1-532): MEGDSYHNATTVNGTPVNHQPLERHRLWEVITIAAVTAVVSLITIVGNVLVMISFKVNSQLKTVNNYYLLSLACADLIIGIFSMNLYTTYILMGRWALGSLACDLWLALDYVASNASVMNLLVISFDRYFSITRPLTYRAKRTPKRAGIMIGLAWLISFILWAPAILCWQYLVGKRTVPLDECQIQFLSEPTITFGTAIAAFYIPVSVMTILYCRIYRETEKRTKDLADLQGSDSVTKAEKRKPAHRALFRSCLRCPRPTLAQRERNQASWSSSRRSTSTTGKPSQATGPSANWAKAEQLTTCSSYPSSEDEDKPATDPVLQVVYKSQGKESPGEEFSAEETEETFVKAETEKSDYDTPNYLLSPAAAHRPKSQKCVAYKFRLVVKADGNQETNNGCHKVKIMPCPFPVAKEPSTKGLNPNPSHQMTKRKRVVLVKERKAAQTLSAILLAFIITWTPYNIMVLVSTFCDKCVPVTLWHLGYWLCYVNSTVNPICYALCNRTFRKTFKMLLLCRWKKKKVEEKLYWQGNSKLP
Method in brief: (§1)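 CHO-K1 cells stably expressing human M3 or M5 receptor, dye-loaded ≥1 h, treated with 11-point compound doses in triplicate; Ca++ flux read over 3 min (FDSS). Agonist-mode four-parameter fit; percent activity relative to carbachol EC100; repeat tests reported as geometric mean.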

[3] = biological target: T3, human cloned CHRM3 receptor (Homo sapiens, UniProt P20309); assay: CHRM3 Ca++ Flux Assay (M3_CHO cells, agonist mode); settings: for M3 FDSS PA % / Emax: Percent Activity (PA) measured to EC100 of Carbachol; for EC50: agonist mode, geometric mean if tested more than once, read-out: M3 FDSS EC50; for Emax: read-out: M3 FDSS PA %
T3 construct: expressed in transfected cells; host or cells: CHO-K1 (M3_CHO)
Method in brief: as §1

T3 sequence (P20309 whole entry): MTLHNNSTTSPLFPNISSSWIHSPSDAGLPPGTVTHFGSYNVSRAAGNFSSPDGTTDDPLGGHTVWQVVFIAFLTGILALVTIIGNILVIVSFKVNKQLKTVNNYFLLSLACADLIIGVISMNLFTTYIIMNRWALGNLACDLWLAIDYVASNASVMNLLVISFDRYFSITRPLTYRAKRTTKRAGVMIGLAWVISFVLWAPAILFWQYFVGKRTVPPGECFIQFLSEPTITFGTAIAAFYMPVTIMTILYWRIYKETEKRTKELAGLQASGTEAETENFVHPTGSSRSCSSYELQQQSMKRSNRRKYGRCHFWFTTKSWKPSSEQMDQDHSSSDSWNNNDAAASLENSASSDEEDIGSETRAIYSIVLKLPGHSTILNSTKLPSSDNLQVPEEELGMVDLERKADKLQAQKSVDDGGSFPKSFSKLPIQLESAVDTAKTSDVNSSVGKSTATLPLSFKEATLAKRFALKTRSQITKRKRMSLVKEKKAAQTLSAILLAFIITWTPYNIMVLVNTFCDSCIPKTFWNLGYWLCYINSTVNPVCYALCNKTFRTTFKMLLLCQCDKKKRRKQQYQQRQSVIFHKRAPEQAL

Row | SMILES | EC50 [1] [µM] | M2 FDSS PA % [1] [%] | M5 FDSS PA % [2] [%] | EC50 [2] [µM] | M3 FDSS PA % [3] [%] | EC50 [3] [µM] | Emax [1] [%] | Emax [2] [%] | Emax [3] [%]
1 | CC(C)(O)[C@H]1C[C@@H](Oc2ccc(F)cc2C2CCN([C@@H]3COC4(C3)CN(c3ncco3)C4)CC2)C1 (single isomer, unassigned) [Example 4T, 2-((1R,3s)-3-(4-fluoro-2-(1-((S)-2-(oxazol-2-yl)-5-oxa-2-azaspiro[3.4]octan-7-yl)piperidin-4-yl)phenoxy)cyclobutyl)propan-2-ol or 2-((1S,3r)-3-(4-fluoro-2-(1-((S)-2-(oxazol-2-yl)-5-oxa-2-azaspiro[3.4]octan-7-yl)piperidin-4-yl)phenoxy)cyclobutyl)propan-2-ol] | 17.7 | 43 | 0 | > 25 | 0 | > 25 |  |  | 
2 | Fc1cc(F)c(OCC2COC2)c(C2CCN([C@@H]3COC4(C3)CN(c3nnco3)C4)CC2)c1 [Example 2DD, (S)-7-(4-(3,5-difluoro-2-(oxetan-3-ylmethoxy)phenyl)piperidin-1-yl)-2-(1,3,4-oxadiazol-2-yl)-5-oxa-2-azaspiro[3.4]octane] | 6.76 |  |  | > 25 |  | > 25 | 23 | 0 | 0
3 | OC[C@H]1C[C@H](Oc2ccc(F)cc2C2CCN([C@@H]3COC4(C3)CN(c3nnco3)C4)CC2)C1 (single isomer, unassigned) [Example 2II, ((1S,3r)-3-(2-(1-((S)-2-(1,3,4-oxadiazol-2-yl)-5-oxa-2-azaspiro[3.4]octan-7-yl)piperidin-4-yl)-4-fluorophenoxy)cyclobutyl)methanol or ((1R,3s)-3-(2-(1-((S)-2-(1,3,4-oxadiazol-2-yl)-5-oxa-2-azaspiro[3.4]octan-7-yl)piperidin-4-yl)-4-fluorophenoxy)cyclobutyl)methanol] | 4.29 | 23 | 0 | > 25 | 0 | > 25 |  |  | 
4 | Fc1cc(OC2CCOCC2)c(C2CCN([C@@H]3COC4(C3)CN(c3nnco3)C4)CC2)cc1F [Example 2GG, (S)-7-(4-(4,5-difluoro-2-((tetrahydro-2H-pyran-4-yl)oxy)phenyl)piperidin-1-yl)-2-(1,3,4-oxadiazol-2-yl)-5-oxa-2-azaspiro[3.4]octane] | > 25 |  |  | > 25 |  | > 25 | 0 | 0 | 0
5 | COc1cc(F)ccc1C1CCN([C@@H]2COC3(C2)CN(c2ncns2)C3)CC1 [Example 5E, (S)-7-(4-(4-fluoro-2-methoxyphenyl)piperidin-1-yl)-2-(1,2,4-thiadiazol-5-yl)-5-oxa-2-azaspiro[3.4]octane] | > 25 |  |  | 13 |  | > 25 | 0 | 0 | 0
6 | Fc1cc(OCC2(F)COC2)c(C2CCN([C@@H]3COC4(C3)CN(c3ncco3)C4)CC2)cc1F [Example 4P, (S)-7-(4-(4,5-difluoro-2-((3-fluorooxetan-3-yl)methoxy)phenyl)piperidin-1-yl)-2-(oxazol-2-yl)-5-oxa-2-azaspiro[3.4]octane] | 10.5 |  |  | > 25 |  | > 25 | 28 | 0 | 0
7 | C[C@H](Oc1ccc(F)cc1C1CCN([C@@H]2COC3(C2)CN(c2nnco2)C3)CC1)C1CCOCC1 [Example 2X, (S)-7-(4-(5-fluoro-2-((S)-1-(tetrahydro-2H-pyran-4-yl)ethoxy)phenyl)piperidin-1-yl)-2-(1,3,4-oxadiazol-2-yl)-5-oxa-2-azaspiro[3.4]octane or(S)-7-(4-(5-fluoro-2-((R)-1-(tetrahydro-2H-pyran-4-yl)ethoxy)phenyl)piperidin-1-yl)-2-(1,3,4-oxadiazol-2-yl)-5-oxa-2-azaspiro[3.4]octane] | 11.2 | 23 | 0 | > 25 | 0 | > 25 |  |  | 
8 | Fc1ccc(C2CCOCC2)c(C2CCN([C@@H]3COC4(C3)CN(c3ncco3)C4)CC2)c1 [Example 4W, (S)-7-(4-(5-fluoro-2-(tetrahydro-2H-pyran-4-yl)phenyl)piperidin-1-yl)-2-(oxazol-2-yl)-5-oxa-2-azaspiro[3.4]octane] | 5.16 |  |  | > 25 |  | > 25 | 21 | 0 | 0
9 | C[C@H](Oc1ccc(F)cc1C1CCN([C@@H]2COC3(C2)CN(c2nnco2)C3)CC1)C1CCOCC1 (single isomer, unassigned) [Example 2Y, (S)-7-(4-(5-fluoro-2-((S)-1-(tetrahydro-2H-pyran-4-yl)ethoxy)phenyl)piperidin-1-yl)-2-(1,3,4-oxadiazol-2-yl)-5-oxa-2-azaspiro[3.4]octane or (S)-7-(4-(5-fluoro-2-((R)-1-(tetrahydro-2H-pyran-4-yl)ethoxy)phenyl)piperidin-1-yl)-2-(1,3,4-oxadiazol-2-yl)-5-oxa-2-azaspiro[3.4]octane] | 3.33 | 35 | 13 | 9.46 | 0 | > 25 |  |  | 

These reach a lower EC50 [1]. Values come first.

Row | EC50 [1] [µM] | M2 FDSS PA % [1] [%] | M5 FDSS PA % [2] [%] | EC50 [2] [µM] | M3 FDSS PA % [3] [%] | EC50 [3] [µM] | Emax [1] [%] | Emax [2] [%] | Emax [3] [%] | SMILES
10 | 2.94 |  |  | > 25 |  | > 25 | 50 | 0 | 0 | Fc1cc(F)c(OC2COC2)c(C2CCN([C@@H]3COC4(C3)CN(c3nnco3)C4)CC2)c1 [Example 2EE, (S)-7-(4-(3,5-difluoro-2-(oxetan-3-yloxy)phenyl)piperidin-1-yl)-2-(1,3,4-oxadiazol-2-yl)-5-oxa-2-azaspiro[3.4]octane]
11 | 0.801 |  |  | > 25 |  | > 25 | 30 | 0 | 0 | Fc1ccc(O[C@H]2CCOC2)c(C2CCN([C@@H]3COC4(C3)CN(c3nnco3)C4)CC2)c1 [Example 1H, (S)-7-(4-(5-fluoro-2-(((S)-tetrahydrofuran-3-yl)oxy)phenyl)piperidin-1-yl)-2-(1,3,4-oxadiazol-2-yl)-5-oxa-2-azaspiro[3.4]octane]
12 | 0.492 |  |  | > 25 |  | > 25 | 39 | 0 | 0 | Fc1ccc(OC[C@@H]2CCOC2)c(C2CCN([C@@H]3COC4(C3)CN(c3nnco3)C4)CC2)c1 [Example 1B, (S)-7-(4-(5-fluoro-2-(((R)-tetrahydrofuran-3-yl)methoxy)phenyl)piperidin-1-yl)-2-(1,3,4-oxadiazol-2-yl)-5-oxa-2-azaspiro[3.4]octane]
13 | 0.432 |  |  | > 25 |  | > 25 | 21 | 0 | 0 | Fc1ccc(OC2COC2)c(C2CCN([C@@H]3COC4(C3)CN(c3ncco3)C4)CC2)c1 [Example 4A, (S)-7-(4-(5-fluoro-2-(oxetan-3-yloxy)phenyl)piperidin-1-yl)-2-(oxazol-2-yl)-5-oxa-2-azaspiro[3.4]octane]
14 | 0.312 |  |  | > 25 |  | > 25 | 28 | 0 | 0 | Fc1cc(OC2COC2)c(C2CCN([C@@H]3COC4(C3)CN(c3nnco3)C4)CC2)cc1F [Example 2FF, (S)-7-(4-(4,5-difluoro-2-(oxetan-3-yloxy)phenyl)piperidin-1-yl)-2-(1,3,4-oxadiazol-2-yl)-5-oxa-2-azaspiro[3.4]octane]
